Values joined by “and” are separate entries in the source; they are usually repeats but may differ in a detail not shown here. Equal entries are not always repeated.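 Growth conditions: 96-well plates. Treatment: test compound, 48 hours, 5 concentrations. Analysis: linear interpolation between bracketing concentrations; unreached endpoints set to highest concentration. GI50 is the concentration that inhibits growth by half. Definition used: TGI = concentration required for complete inhibition of growth.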
Tests used:
Assay in all cases: NCI-60 cell line screen, 48 h
[1] = test system: 786-0 renal
[2] = test system: A549 NSCLC
[3] = test system: ACHN renal
[4] = test system: BT-549 breast
[5] = test system: CAKI-1 renal
[6] = test system: CCRF-CEM leukemia
[7] = test system: COLO 205 colon
[8] = test system: DU-145 prostate
[9] = test system: EKVX NSCLC
[10] = test system: HCC-2998 colon
[11] = test system: HCT-116 colon
[12] = test system: HCT-15 colon
[13] = test system: HL-60(TB) leukemia
[14] = test system: HOP-62 NSCLC
[15] = test system: HS 578T breast
[16] = test system: HT29 colon
[17] = test system: IGROV1 ovarian
[18] = test system: K-562 leukemia
[19] = test system: KM12 colon
[20] = test system: LOX IMVI melanoma
[21] = test system: M14 melanoma
[22] = test system: MALME-3M melanoma
[23] = test system: MCF7 breast
[24] = test system: MDA-MB-231 breast
[25] = test system: MDA-N
[26] = test system: MOLT-4 leukemia
[27] = test system: NCI-H226 lung
[28] = test system: NCI-H23 lung
[29] = test system: NCI-H460 lung
[30] = test system: NCI-H522 lung
[31] = test system: NCI/ADR-RES ovarian
[32] = test system: OVCAR-4 ovarian
[33] = test system: OVCAR-5 ovarian
[34] = test system: OVCAR-8 ovarian
[35] = test system: PC-3 prostate
[36] = test system: RPMI-8226 leukemia
[37] = test system: RXF 393 renal
[38] = test system: SF-268 CNS
[39] = test system: SF-295 CNS
[40] = test system: SF-539 CNS
[41] = test system: SK-MEL-2 melanoma
[42] = test system: SK-MEL-28 melanoma
[43] = test system: SK-OV-3 ovarian
[44] = test system: SN12C renal
[45] = test system: SNB-19 CNS
[46] = test system: SNB-75 CNS
[47] = test system: SR leukemia
[48] = test system: SW-620 colon
[49] = test system: T-47D breast
[50] = test system: TK-10 renal
[51] = test system: U251 CNS
[52] = test system: UACC-257 melanoma
[53] = test system: UACC-62 melanoma
[54] = test system: UO-31 renal
[55] = test system: A498 renal
[56] = test system: HOP-92 NSCLC
[57] = test system: MDA-MB-435
[58] = test system: OVCAR-3 ovarian
[59] = test system: SK-MEL-5 melanoma

O=C1c2ccccc2CC12CCC1(CC2)OCCO1
TGI [1]: > 100000 nM
TGI [2]: > 100000 nM
TGI [3]: > 100000 nM
TGI [4]: > 100000 nM
TGI [5]: > 100000 nM
TGI [6]: > 100000 nM
TGI [7]: > 100000 nM
TGI [8]: > 100000 nM
TGI [9]: > 100000 nM
TGI [10]: > 100000 nM
TGI [11]: > 100000 nM
TGI [12]: > 100000 nM
TGI [13]: > 100000 nM
TGI [14]: > 100000 nM
TGI [15]: > 100000 nM
TGI [16]: > 100000 nM
TGI [17]: > 100000 nM
TGI [18]: > 100000 nM
TGI [19]: > 100000 nM
TGI [20]: > 100000 nM
TGI [21]: > 100000 nM
TGI [22]: > 100000 nM
TGI [23]: > 100000 nM
TGI [24]: > 100000 nM
TGI [25]: > 100000 nM
TGI [26]: > 100000 nM
TGI [27]: > 100000 nM
TGI [28]: > 100000 nM
TGI [29]: > 100000 nM
TGI [30]: > 100000 nM
TGI [31]: > 100000 nM
TGI [32]: > 100000 nM
TGI [33]: > 100000 nM
TGI [34]: > 100000 nM
TGI [35]: > 100000 nM
TGI [36]: > 100000 nM
TGI [37]: > 100000 nM
TGI [38]: > 100000 nM
TGI [39]: > 100000 nM
TGI [40]: > 100000 nM
TGI [41]: > 100000 nM
TGI [42]: > 100000 nM
TGI [43]: > 100000 nM
TGI [44]: > 100000 nM
TGI [45]: > 100000 nM
TGI [46]: > 100000 nM
TGI [47]: > 100000 nM
TGI [48]: > 100000 nM
TGI [49]: > 100000 nM
TGI [50]: > 100000 nM
TGI [51]: > 100000 nM
TGI [52]: > 100000 nM
TGI [53]: > 100000 nM
TGI [54]: > 100000 nM

CC(C)NCCCNc1c2ccccc2nc2cccc([N+](=O)[O-])c12
GI50 [1]: 10.8 nM
TGI [1]: 32.5 nM and 70.4 nM
GI50 [55]: 12.3 nM
TGI [55]: 32.8 nM and 43.2 nM
TGI [2]: 150 nM and 58.5 nM
TGI [3]: 57 nM and 106 nM
GI50 [4]: 22.2 nM
TGI [4]: 157 nM and 59.9 nM
TGI [5]: 239 nM
GI50 [6]: 11.8 nM
TGI [6]: 85.4 nM and 64.4 nM
TGI [7]: 13 nM and 16.8 nM
GI50 [9]: 37.2 nM
TGI [9]: 79.1 nM and 268 nM
TGI [10]: 16.5 nM
TGI [12]: > 100000 nM
GI50 [13]: 10.2 nM
TGI [14]: 80.9 nM and 24.4 nM
TGI [56]: 39.7 nM
GI50 [15]: 21.8 nM
TGI [15]: 290 nM and 113 nM
TGI [16]: 21.6 nM
TGI [17]: 35.2 nM and 134 nM
TGI [18]: 16.9 nM and 10.4 nM
TGI [19]: 40.9 nM and 28.4 nM
GI50 [20]: 15.3 nM
TGI [20]: 25.6 nM and 116 nM
TGI [21]: 24.4 nM
GI50 [22]: 12 nM
TGI [22]: 27.2 nM and 47.1 nM
TGI [23]: 43 nM
GI50 [24]: 10.7 nM
TGI [24]: 47 nM and 114 nM
TGI [57]: 22.5 nM and 18.6 nM
TGI [25]: 29.2 nM
TGI [26]: 25.4 nM and 16.9 nM
TGI [27]: 90.3 nM
TGI [28]: 9.08 nM
TGI [29]: 103 nM
GI50 [31]: 1860 nM
TGI [31]: 4650 nM and 24400 nM
TGI [58]: 37 nM
TGI [32]: 23.6 nM
TGI [33]: 145 nM and 18.3 nM
TGI [34]: 55.5 nM
TGI [35]: 38 nM
TGI [36]: 7.96 nM and 26.2 nM
TGI [37]: 18.3 nM
GI50 [38]: 16.7 nM
TGI [38]: 32.3 nM and 182 nM
TGI [39]: 45.1 nM and 173 nM
GI50 [40]: 14.2 nM
TGI [40]: 228 nM and 40.9 nM
TGI [41]: 29.9 nM
GI50 [42]: 24.4 nM
TGI [42]: 289 nM and 74.8 nM
TGI [59]: 16.3 nM
TGI [43]: 394 nM and 273 nM
TGI [44]: 150 nM
GI50 [45]: 11.2 nM
GI50 [46]: 16.1 nM
TGI [46]: 97.4 nM and 45.2 nM
TGI [48]: 209 nM and 237 nM
TGI [49]: 58.2 nM and 96.8 nM
TGI [50]: 463 nM and 70.8 nM
TGI [51]: 119 nM and 49.6 nM
GI50 [52]: 19.4 nM
TGI [52]: 170 nM and 45.8 nM
TGI [53]: 37.4 nM and 31 nM
GI50 [54]: 30.6 nM
TGI [54]: 451 nM and 148 nM
